Results on 41 compounds are retold here after patent US7300946B2, “N-(substituted arylmethyl)-4-(disubstituted methyl) piperidines and pyridines” (Bayer CropScience AG, priority 2002, dated 2007).

For the experiment, the system named is tobacco budworm (Heliothis virescens [Fabricius]). The experiment can be described thus: surface-treated diet test against the tobacco budworm. Format: in vivo. The following applies: tobacco budworm second instar larvae, 0.25 millimoles of candidate insecticide on the surface of the diet, five-day exposure; for Percent Mortality: compared to total number of insects infested; for Percent Growth Inhibition: inhibition of insect weight relative to untreated controls. The method in brief: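 Wheat germ artificial diet surface-treated with 40 µL of 50 mM DMSO stock diluted 1:7 in 1:1 water/acetone (0.25 millimolar on diet), or sub-multiples for rate tests. One second-instar larva per well, 25° C, 60% RH, 5 days; percent weight inhibition vs DMSO controls and percent mortality.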

As for `Cc1ccc(S(=O)(=O)NC(=O)OC(c2ccc(C(F)(F)F)cc2)C2CCN(Cc3ccc(Oc4ccccn4)cc3)CC2)cc1` (stereo not shown) [Compound 696], for the setting “surface-treated diet”, the “Percent Mortality” value worked out at 0% and the “Percent Growth Inhibition” value is 32%.

`O=C(Nc1cc(F)cc(F)c1)OC(c1ccc(OC(F)(F)F)cc1)C1CCN(Cc2ccc(I)cc2)CC1` (stereo not shown) [Compound 462]: where the note is “surface-treated diet”, the “Percent Mortality” value stood at 83% and the “Percent Growth Inhibition” value is on record as 100%.

For the compound `CCCOc1ccc(CN2CCC(C(OC(=O)Nc3cccc(C(F)(F)F)c3)c3ccc(Cl)c(Cl)c3)CC2)cc1` (stereo not shown) [Compound 483], where the note is “surface-treated diet”, the “Percent Mortality” value turned out to be 100% and the “Percent Growth Inhibition” value was 100%.

As for `O=C(Nc1ccc(SC(F)(F)F)cc1)OC(c1ccc(C(F)(F)F)cc1)C1CCN(Cc2ccc(Oc3ccccn3)cc2)CC1` (stereo not shown) [Compound 703], the “Percent Mortality” value is recorded as 100% and the “Percent Growth Inhibition” value is given as 100%.

With `Cn1nnc(-c2ccc(C[N+]3([O-])CCC(C(OC(=O)Nc4ccc(OC(F)(F)F)cc4)c4ccc(OC(F)(F)F)cc4)CC3)cc2)n1` (stereo not shown) [Compound 404], for the setting “surface-treated diet”, the “Percent Mortality” value came out at 100% and the “Percent Growth Inhibition” value amounted to 100%.

In the case of `O=C(Nc1cccc(C(F)(F)F)c1)OC(c1ccc(Cl)c(Cl)c1)C1CCN(Cc2ccc(Oc3ncccn3)cc2)CC1` (stereo not shown) [Compound 724], the “Percent Mortality” value worked out at 100% and the “Percent Growth Inhibition” value came to 100%.

Regarding `O=C(Nc1cc(F)c(F)c(F)c1)OC(c1ccc(C(F)(F)F)cc1)C1CCN(Cc2ccc(Oc3ccccn3)cc2)CC1` (stereo not shown) [Compound 697], under “surface-treated diet”, the “Percent Mortality” value was 100% and the “Percent Growth Inhibition” value is on record as 100%.

For `O=C(Nc1c(F)cccc1F)OC(c1ccc(C(F)(F)F)cc1)C1CCN(Cc2ccc(Oc3ccccn3)cc2)CC1` (stereo not shown) [Compound 241], under “surface-treated diet”, the “Percent Mortality” value amounted to 100% and the “Percent Growth Inhibition” value came to 100%.

Consider `CNC(=O)Oc1ccc(C[N+]2([O-])CCC(=C(c3ccc(Cl)cc3)c3ccc(Cl)cc3)CC2)cc1` (stereo not shown) [Compound 827], for which the “Percent Mortality” value is 100% and the “Percent Growth Inhibition” value is on record as 100%.

As for `CCON=Cc1ccc(CN2CCC(C(OC(=O)N(C)c3ccccc3)c3ccc(C(F)(F)F)cc3)CC2)cc1` (stereo not shown) [Compound 536], where the note is “surface-treated diet”, the “Percent Mortality” value turned out to be 100% and the “Percent Growth Inhibition” value was determined as 100%.

Turning to `CCON=Cc1ccc(CN2CCC(C(OC(=O)Nc3ccc(C(F)(F)F)cc3)c3ccc(C(F)(F)F)cc3)CC2)cc1` (stereo not shown) [Compound 205], under “surface-treated diet”, the “Percent Mortality” value was 33% and the “Percent Growth Inhibition” value is listed as 100%.

On to `CCn1nnc(-c2ccc(CN3CCC(C(OC(=O)Nc4ccc(Cl)c(Cl)c4)c4ccc(C)cc4)CC3)cc2)n1` (stereo not shown) [Compound 596], for which, for the setting “surface-treated diet”, the “Percent Mortality” value was 100% and the “Percent Growth Inhibition” value amounted to 100%.

`CCn1nnc(-c2ccc(CN3CCC(C(OC(=O)Nc4ccc(Br)cc4)c4ccc(C(F)(F)F)cc4)CC3)cc2)n1` (stereo not shown) [Compound 269]: where the note is “surface-treated diet”, the “Percent Mortality” value worked out at 100% and the “Percent Growth Inhibition” value was determined as 100%.

On to `O=C(NC1CCCCC1)OC(c1ccc(C(F)(F)F)cc1)C1CCN(Cc2ccc(Oc3ccccn3)cc2)CC1` (stereo not shown) [Compound 782], for which the “Percent Mortality” value was determined as 100% and the “Percent Growth Inhibition” value is 100%.

As to `O=C(Nc1ccc(-c2ccccc2)cc1)OC(c1ccc(C(F)(F)F)cc1)C1CCN(Cc2ccc(Oc3ccccn3)cc2)CC1` (stereo not shown) [Compound 250], for the setting “surface-treated diet”, the “Percent Mortality” value came to 100% and the “Percent Growth Inhibition” value came out at 100%.

For the compound `CCn1nnc(-c2ccc(CN3CCC(C(OC(=O)Nc4cc(F)cc(F)c4)c4cc(F)cc(F)c4)CC3)cc2)n1` (stereo not shown) [Compound 593], under “surface-treated diet”, the “Percent Mortality” value is given as 100% and the “Percent Growth Inhibition” value was determined as 100%.

In the case of `COC(=O)C(NC(=O)OC(c1ccc(C(F)(F)F)cc1)C1CCN(Cc2ccc(Oc3ccccn3)cc2)CC1)C(C)C` (stereo not shown) [Compound 784], the “Percent Mortality” value came to 100% and the “Percent Growth Inhibition” value was 100%.

With `Cn1nnc(-c2ccc(CN3CCC(C(NC(=O)Oc4cccc(F)c4)c4ccc(OC(F)(F)F)cc4)CC3)cc2)n1` (stereo not shown) [Compound 352], where the note is “surface-treated diet”, the “Percent Mortality” value stood at 83% and the “Percent Growth Inhibition” value was determined as 100%.

In the case of `O=C(Nc1ccc(Cl)cc1)OC(c1ccc(C(F)(F)F)cc1)C1CCN(Cc2ccc(Oc3cccc[n+]3[O-])cc2)CC1` (stereo not shown) [Compound 669], for the setting “surface-treated diet”, the “Percent Mortality” value was determined as 100% and the “Percent Growth Inhibition” value is given as 100%.

As to `Cn1nnc(-c2ccc(CN3CCC(C(NC(=O)c4cccc(Cl)c4)c4ccc(OC(F)(F)F)cc4)CC3)cc2)n1` (stereo not shown) [Compound 323], under “surface-treated diet”, the “Percent Mortality” value is recorded as 67% and the “Percent Growth Inhibition” value is 98%.

For `Cn1nnc(-c2ccc(CN3CCC(C(Oc4ccc(C(F)(F)F)cn4)c4ccc(OC(F)(F)F)cc4)CC3)cc2)n1` (stereo not shown) [Compound 434, 2-[(1-{[4-(2-methyl(1,2,3,4-tetraazol-5-yl))phenyl]methyl}(4-piperidyl))[4-(trifluoromethoxy)phenyl]methoxy]-5-(trifluoromethyl)pyridine], where the note is “surface-treated diet”, the “Percent Mortality” value turned out to be 100% and the “Percent Growth Inhibition” value is 100%.

Regarding `Cn1nnc(-c2ccc(COC(c3ccc(OC(F)(F)F)cc3)C3CCN(Cc4ccc(-c5nnn(C)n5)cc4)CC3)cc2)n1` (stereo not shown) [Compound 306], under “surface-treated diet”, the “Percent Mortality” value stood at 33% and the “Percent Growth Inhibition” value was found to be 59%.

With `CCn1nnc(-c2ccc(CN3CCC(C(OC(=O)Nc4ccc(Br)cc4)c4ccc(OC(F)(F)F)cc4)CC3)cc2)n1` (stereo not shown) [Compound 270], for the setting “surface-treated diet”, the “Percent Mortality” value was determined as 100% and the “Percent Growth Inhibition” value came to 100%.

As for `CCn1nnc(-c2ccc(CN3CCC(C(OC(=O)Nc4ccc(-c5ccccc5)cc4)c4ccc(OC)cc4)CC3)cc2)n1` (stereo not shown) [Compound 607], for the setting “surface-treated diet”, the “Percent Mortality” value is 100% and the “Percent Growth Inhibition” value is 100%.

Regarding `O=C(Nc1ccccn1)OC(c1ccc(C(F)(F)F)cc1)C1CCN(Cc2ccc(Oc3ccccn3)cc2)CC1` (stereo not shown) [Compound 436], where the note is “surface-treated diet”, the “Percent Mortality” value is given as 50% and the “Percent Growth Inhibition” value was determined as 100%.

For the compound `CCn1nnc(-c2ccc(C[N+]3([O-])CCC(C(OC(=O)Nc4ccc(OC(F)(F)F)cc4)c4ccc(OC(F)(F)F)cc4)CC3)cc2)n1` (stereo not shown) [Compound 405], under “surface-treated diet”, the “Percent Mortality” value is 100% and the “Percent Growth Inhibition” value was 100%.

For `Cn1nnc(-c2ccc(CN3CCC(C(OC(=O)Nc4cccc(F)c4)c4ccc(OC(F)(F)F)cc4)CC3)cc2)n1` (stereo not shown) [Compound 273], where the note is “surface-treated diet”, the “Percent Mortality” value was determined as 100% and the “Percent Growth Inhibition” value was found to be 100%.

As to `CN(C(=O)OC(c1ccc(Cl)cc1)C1CCN(Cc2ccc(Oc3ccccn3)cc2)CC1)c1ccc(C(F)(F)F)cc1` (stereo not shown) [Compound 636], for the setting “surface-treated diet”, the “Percent Mortality” value was 100% and the “Percent Growth Inhibition” value is 100%.

Consider `N#Cc1cccnc1Oc1ccc(CN2CCC(C(OC(=O)Nc3cc(F)cc(F)c3)c3ccc(C(F)(F)F)cc3)CC2)cc1` (stereo not shown) [Compound 687], for which, where the note is “surface-treated diet”, the “Percent Mortality” value turned out to be 100% and the “Percent Growth Inhibition” value was found to be 100%.

As to `O=C(Nc1cc(F)cc(F)c1)OC(c1ccc(C(F)(F)F)cc1)C1CCN(Cc2ccc(Oc3ccccn3)cc2)CC1` (stereo not shown) [Compound 240], for the setting “surface-treated diet”, the “Percent Mortality” value came to 100% and the “Percent Growth Inhibition” value stood at 100%.

In the case of `O=C(Nc1cc(F)cc(F)c1)OC(c1ccc(C(F)(F)F)cc1)C1CCN(Cc2ccc(Oc3ccccc3)cc2)CC1` (stereo not shown) [Compound 546], for the setting “surface-treated diet”, the “Percent Mortality” value came out at 100% and the “Percent Growth Inhibition” value is given as 100%.

On to `COC(=O)N(c1ccc(CN2CCC(C(OC(=O)Nc3cc(F)cc(F)c3)c3ccc(C(F)(F)F)cc3)CC2)cc1)c1ccccn1` (stereo not shown) [Compound 516], for which, under “surface-treated diet”, the “Percent Mortality” value came out at 100% and the “Percent Growth Inhibition” value was 100%.

Regarding `O=C(Nc1ccc(Cl)cc1)OC(c1ccc(Cl)cc1Cl)C1CCN(Cc2ccc(Oc3ncccn3)cc2)CC1` (stereo not shown) [Compound 718], the “Percent Mortality” value was found to be 100% and the “Percent Growth Inhibition” value worked out at 100%.

Turning to `O=C(Nc1cc(C(F)(F)F)cc(C(F)(F)F)c1)OC(c1ccc(C(F)(F)F)cc1)C1CCN(Cc2ccc(Oc3ccccn3)cc2)CC1` (stereo not shown) [Compound 248], where the note is “surface-treated diet”, the “Percent Mortality” value turned out to be 100% and the “Percent Growth Inhibition” value came to 100%.

As for `CC(C)OC(=O)Nc1ccc(C[N+]2([O-])CCC(=C(c3ccc(F)cc3)c3ccc(F)cc3)CC2)cc1` (stereo not shown) [Compound 832], the “Percent Mortality” value was 83% and the “Percent Growth Inhibition” value amounted to 100%.

With `CCn1nnc(-c2ccc(CN3CCC(C(OC(=O)Nc4c(Cl)cccc4Cl)c4ccc(C(F)(F)F)cc4)CC3)cc2)n1` (stereo not shown) [Compound 282], where the note is “surface-treated diet”, the “Percent Mortality” value was determined as 0% and the “Percent Growth Inhibition” value was 95%.

Consider `O=C(Nc1ccc(F)cc1F)OC(c1ccc(C(F)(F)F)cc1)C1CCN(Cc2ccc(Oc3ncccn3)cc2)CC1` (stereo not shown) [Compound 730], for which the “Percent Mortality” value is 100% and the “Percent Growth Inhibition” value is listed as 100%.

On to `FC(F)(F)c1ccc(C(=C2CCN(Cc3ccc(Oc4ncccn4)cc3)CC2)c2ccc(Cl)cc2)cc1` [Compound 816], for which the “Percent Mortality” value is 100% and the “Percent Growth Inhibition” value is 100%.

Consider `O=C(Nc1ccccc1Cl)OC(c1ccc(C(F)(F)F)cc1)C1CCN(Cc2ccc(Oc3ccccn3)cc2)CC1` (stereo not shown) [Compound 662], for which, where the note is “surface-treated diet”, the “Percent Mortality” value was 100% and the “Percent Growth Inhibition” value was determined as 100%.

Turning to `O=C(Nc1ccc(Cl)c(C(F)(F)F)c1)OC(c1ccc(C(F)(F)F)cc1)C1CCN(Cc2ccc(Oc3ccccn3)cc2)CC1` (stereo not shown) [Compound 247], under “surface-treated diet”, the “Percent Mortality” value turned out to be 100% and the “Percent Growth Inhibition” value was determined as 100%.

On to `O=C(CCN1CCC(=C(c2ccccc2)c2ccccc2)CC1)c1ccccc1` [Compound 85], for which, for the setting “surface-treated diet”, the “Percent Mortality” value came to 100% and the “Percent Growth Inhibition” value worked out at 100%.
